Tests used:
[1] = Metabolite analysis after incubation in human serum or plasma (QC radio-HPLC); assay type: in vitro ADME; settings: 37° C., upto 1 h
From the text: Oxidative imbalance and functional impairment of mitochondria may mediate pathogenesis of neurodegenerative diseases and mitochondria are among the prominent intracellular site for ROS generation. Thus, a 2nd generation redox-sensitive neuroROS tracer was designed (also identified as either as SLN 128 or 12 (noncarrier added) or ^18F-13 (PET tracer); see e.g., FIG. 2) for the detection of total ROS within cells undergoing pro-oxidative stage. While the unlabeled/noncarrier counterpart of the probe 12 was synthesized and characterized through standard analytical methods (Proton NMR, proton-decoupled 13C-NMR, HRMS, Elemental analysis), the carrier added ^18F-13 (Lab ID:18F-SLN128) was synthesized through a reaction between the tosylated precursor 11 and KF{18F}-/Kryptofix 222 and followed by deprotection of methoxymethyl ether 11 in situ with TFA as shown (see e.g., FIG. 2), purified on semipreparatory C-18 column, the desired fraction with a Rt=12 min was collected, concentrated, reconstituted in 5% ethanol/95%sterile saline and analyzed for purity on QC radio-HPLC (radiochemical yield: 15-20%; radiochemical purity >99%; specific activity:1400-1700 Ci/mmole) and identified by spiking with the noncarrier added/unlabeled counterpart. […] For analysis of metabolites, ^18F-SLN-128 was incubated with either human serum or plasma at 37° C. as a function of time and analyzed on QC Radio-HPLC.

[2] = test system: LPS induced systemic inflammation of mouse brain; assay: Dynamic PET/CT imaging in LPS-treated mice; assay type: in vivo; settings: for brain uptake in LPS-treated mice relative to saline-treated mice: 24 h post LPS, frames 45-60 min
Experimental: FIG. 9A-FIG. 9D is an exemplary embodiment showing preclinical PET/CT imaging in accordance with the present disclosure. C57BI6 mice (n=4) were injected with either LPS or saline intraperitoneally. 24 h post treatments, 18F-SLN-128 (100 μCi) was injected via tail-vein into mice. Dynamic PET images were acquired from 0 min to 60 min post tail-vein injection of the radiotracer. PET/CT images as shown are a summation frames from 45-60 min. FIG. 9A is an image showing saline treated mice (control). FIG. 9B is an image showing LPS treated mice (5 μg/g, 24 h post treatment); FIG. 9C is a bar graph showing quantified uptake: % ID/cm3. FIG. 9D is a bar graph showing post imaging biodistribution: Brain Uptake (% ID/g). mean±SD, where **p<0.01 and […] is determined by an unpaired student ttest) in brains of BI6 mice (n=4) 24 h post either LPS- or saline treatments.
Systemic administration of LPS induces oxidative stress and resulting a release of inflammatory cytokines, sustained microglial activation, and neuronal cell loss in brain areas, such as the hippocampus, cerebral cortex, substantia nigra, ventral tegmental area, and thalamus, alters the levels of neurotransmitters in adult animals, and cerebellum. Thus LPS-induced inflammation provides a useful rodent model for preclinical imaging of ^18F-SLN-128. […] Finally, the brain uptake (see e.g., FIG. 9C) derived from PET imaging also correlated with 60 min post imaging quantified uptake (see e.g., FIG. 9D) indicating potential of the radiotracer for imaging endotoxin mediated brain inflammation in vivo. Mitochondrial dysfunction is a major event in the pathogenesis of Huntington disease (HD). It has also been reported that systemic 3-NP administration leads to oxidized proteins in the striatum, as well as a massive loss of striatal neurons. To evaluate potential of ^18F-SLN-128 PET imaging for 3NP-induced ROS-mediated neurodegeneration in mice, PET/CT imaging was performed.

SMILES: COc1ccc2c(c1)N(C)C(c1ccc(O)c(OCC[18F])c1)c1cccn1-2 (stereo not shown) [18F-SLN-128]
- metabolic stability in human serum [1]: remains non-metabolized
- brain uptake in LPS-treated mice relative to saline-treated mice [2]: 2.5 fold
- brain uptake in LPS-treated mice relative to saline-treated mice ([2]; listed as 18F-SLN128): 2 fold
- retention in brains of LPS treated mice ([2]; compared with saline-treated counterparts): stable retention in brains of LPS treated mice
